Values of other authors as cited in patent EP1886664A1, “N-chloroamines containing compositions” (priority 2006, dated 2008).
Where two headings read alike, the source gives them in different places.

Assays:
[1] = according to Buckley
[2] = tested on: Bacteria, Viruses, Fungi, Seaweed, Yeasts, Parasite
[3] = tested on: bacterial flora in the oral cavity
mouse [4] = conditions: inhalation, 4 hours, maximum reached concentration
Skin = conditions: solution under 8%
mouse [5] = conditions: after 90 days

Compound	sporicide, viruscide and microbacteria activity (microbacteria)	antiseptic power compared to hypochlorites [1]	activity compared to Dakin's liquid ([1]; in the presence of blood)	biocide action ([2]; including viruses and microbacteria in the vegetative form either spori or not)	activity against microorganisms ([2]; organisms listed in the 1st table, the 2nd table and b31)	duration of antiseptic action when applied as a therapeutics ([3]; in vivo)	duration of strong sustainable effect after application ([3]; mouthrinse)	fraction still active (ambient with organic matter and microorganisms, after 24 hours)	activity lost due to decomposition (solution under 5%, opaque container, 25°C, 210 days)	decomposed (solutions under 0.5%, 30 days, 40°C)	LC 50 (mouse [4])	Irritation, Skin (Skin)	Irritation, Eye (Eye; Solution under 0.5%)	Irritation, Eye (Eye; solution under 8%)	oral toxicity, level at which nothing was observed (mouse [5])
N=C(NCCCCCCNC(=N)NC(=N)Nc1ccc(Cl)cc1)NC(=N)Nc1ccc(Cl)cc1 [chlorexidine]	neither a sporicide, neither a viruscide and nor active against microbacteria														
Cc1ccc(S(=O)(=O)NCl)cc1 [T-chloramine, sodium N-chloro-para-toluenesulfamide]		four times higher than that of hypochlorites	more active than the Dakin's liquid	biocide action against all forms of microorganisms	active	24 h	at least one	approximately half	less than 0.05%	0.01%	> 0.275 µg/mL	not irritating	not irritating	moderately irritating	15 mg/kg/day
